Results taken from patent US20020028851A1, “Guanylhydrazones and their use to treat inflammatory conditions” (priority 1994, published 2002).

What was measured:
RAW 264.7 cells = assay: Whole cell inhibition assay for urea output; assay type: cell-based, murine; conditions: for urea % suppression of induced production: γIFN+LPS, 18 hours
Description: RAW 264.7 cells are plated in microculture wells at 1×10^6/ml in RPMI 1640 with 10% FBS and otherwise standard culture conditions and allowed to adhere for 5 hours. They are then activated with 25 U/ml γIFN and 0.1 μg/ml LPS in the presence of test inhibitors. The urea concentration present in the supernatant media, after 18 hours of culture, is determined by a colorimetric blood urea nitrogen diacetylmonoxime assay performed on an aliquot of the culture supernatant (Sigma Chem. Co., St. Louis, Mo.) and inhibition is expressed as the percentage urea compared to that of a parallel control culture treated identically except that the concentration of added inhibitor is zero.
Various concentrations of the test compounds are included in the media of the stimulated RAW 264.7 cells in culture. The concentration of urea and/or nitrite after 18 hours of activated culture is determined and compared to the uninhibited control value obtained from at least one parallel culture. The fractional reduction is calculated for each concentration of inhibitor and the IC50 (concentration giving 50% reduction) is interpolated. Compounds were dissolved in media with mild heat (60° C.). Those with limited solubility were dissolved in base. The concentration of stock solutions of those compounds which were not completely soluble was determined by OD280.

[1] = tested on: Nude mice (nu/nu), AtT-20 cells; assay: Tumor-associated cachexia model, urinary urea loss; assay type: in vivo; conditions: for URINARY UREA LOSS / URINARY UREA LOSS, Sum totals: 0.4 mg/Kg daily i.p.; for URINARY UREA LOSS, Sum totals: sum of listed days
Description: An animal model of tumor-associated protein catabolic illness (cachexia) was employed to directly test the efficacy of Compound No. 14 in reducing whole-body nitrogen losses. Tumors were induced in the appropriate groups by intramuscular inoculation with 15×10^6 AtT-20 cells; this model is known to cause a protein catabolic illness characterized by the consumption of normal quantities of food, but 20% net whole-body losses of protein within 14 days. Compound No. 14 was administered to the “treated” groups in a daily dose of 0.4 mg/Kg, intraperitoneal. Nude mice (nu/nu) were housed in metabolic cages (4 per cage) to facilitate collection of daily urine samples for 14 days. Food intake was measured daily. There were four groups of animals: 1) untreated, non-tumor bearing controls; 2) untreated, tumor-bearing; 3) treated, tumor-bearing, and 4) treated, non-tumor-bearing. Urine was collected and urinary urea losses quantified.

MIP-1β = assay: Cytokine production by LPS/γIFN-stimulated human PBMC: MIP-1β; assay type: cell-based; conditions: γIFN+LPS, 18 hr
From the text: Similar results concerning a variety of cytokines in addition to TNF, e.g., IL-6 and Macrophage Inflammatory Proteins-1α and -1β (MIP-1α and MIP-1β) were obtained using human peripheral blood as a source of monocytes. Human peripheral blood mononuclear cells (PBMC) were isolated using “FICOLL®”-based methods and plated in standard 6-well culture plates at a concentration of 10^6/well and allowed to adhere for from 2 hr to overnight whereupon non-adherent cells were washed out and the medium was then replaced with medium containing the compound to be tested. One hour later, the medium was supplemented so as to contain 25 U/ml γIFN and 0.1 μg/ml LPS and the cultures incubated a further 18 hr. The medium was then collected, and cell debris removed by centrifugation. This conditioned supernatant was then assayed for the presence of cytokines using the standard methodologies of L929 cell cytotoxicity bioassay and immunoassay (ELISA).

[2] = Pharmacokinetics by HPLC of serum; assay type: in vivo, rats
Description: Male Sprague-Dawley rats (Harlan Sprague Dawley, Indianapolis, Ind., USA) were anesthetized with ketamine and the right carotid artery cannulated with polyethylene tubing (PE-50). […] At 0, 5, 15, 30, 60, 90, 120, 180, 240, 300, 360 minutes 400 μl of blood was removed, stored at 4° C. for 4 hr, and then centrifuged at 15,000 ×g for 10 min, and the serum layer collected. Sodium azide was added to 0.0l v/v to prevent microbial growth and pentamidine was added to 5 μg/ml. Twenty-five μl of the resulting sample was analyzed by the HPLC method described.
The HPLC method was applied towards estimating the pharmacokinetic parameters of Compound No. 14 in adult rats receiving a 10 mg/kg dose as a single intra-arterial injection. In these experiments, the solid-phase extraction step was omitted due to the small volume of each sample, and the relatively large amount of Compound No. 14 which was recovered. Typical serum decay curves were obtained (FIG. 17, solid line), and the method of residuals, Gibaldi, M., & Perrier, D., 1982, PHARMACOKINETICS (Marcel Dekker, New York) pp. 433-444, was used to calculate the pharmacokinetic parameters (FIG. 17, dashed lines).

LD50 = assay type: in vivo
[3] = over the 14 day period, per mouse
[4] = rats, 10 mg/kg single intra-arterial injection, n=3

With `CC(=NNC(=N)N)c1cc(NC(=O)CCCCCCCCC(=O)Nc2cc(C(C)=NNC(=N)N)cc(C(C)=NNC(=N)N)c2)cc(C(C)=NNC(=N)N)c1.Cl.Cl.Cl.Cl` [Compound 14, N,N′-bis(3,5-diacetyl-phenyl)decanediamide tetrakis(amidinohydrazone) tetrahydrochloride] the “urea % suppression of induced production” value (RAW 264.7 cells; dose 2 μM) was 68%, the “urea % suppression of induced production” value (RAW 264.7 cells; dose 10 μM) was 78% and the “urea % suppression of induced production” value (RAW 264.7 cells; dose 50 μM) was 100%. The “urea % suppression of induced production” value (RAW 264.7 cells; dose 200 μM) was 100%, the IC50 (RAW 264.7 cells; interpolated, γIFN+LPS-activated RAW 264.7, 18 hours, read-out: I.C.50 (in parenthesis), inhibition of urea production) was 1 µM and the “URINARY UREA LOSS” value ([1]; Controls, Treated (non-tumor-bearing), day 2) was 193 mg/group. The “URINARY UREA LOSS” value ([1]; Controls, Treated (non-tumor-bearing), day 4) was 285 mg/group, the “URINARY UREA LOSS” value ([1]; Controls, Treated (non-tumor-bearing), day 6) was 397 mg/group and the “URINARY UREA LOSS” value ([1]; Controls, Treated (non-tumor-bearing), day 7) was 247 mg/group. The “URINARY UREA LOSS” value ([1]; Controls, Treated (non-tumor-bearing), day 8) was 257 mg/group, the “URINARY UREA LOSS” value ([1]; Controls, Treated (non-tumor-bearing), day 10) was 216 mg/group and the “URINARY UREA LOSS” value ([1]; Controls, Treated (non-tumor-bearing), day 11) was 239 mg/group. The “URINARY UREA LOSS” value ([1]; Controls, Treated (non-tumor-bearing), day 12) was 203 mg/group, the “URINARY UREA LOSS” value ([1]; Controls, Treated (non-tumor-bearing), day 13) was 242 mg/group and the “URINARY UREA LOSS” value ([1]; Controls, Treated (non-tumor-bearing), day 14) was 157 mg/group. For the same molecule, the “URINARY UREA LOSS, Sum totals” value ([1]; Controls, Treated (non-tumor-bearing)) was 2436 mg/group, the “URINARY UREA LOSS” value ([1]; Tumor, Treated, day 2 after tumor) was 195 mg/group and the “URINARY UREA LOSS” value ([1]; Tumor, Treated, day 4 after tumor) was 368 mg/group. The “URINARY UREA LOSS” value ([1]; Tumor, Treated, day 6 after tumor) was 295 mg/group, the “URINARY UREA LOSS” value ([1]; Tumor, Treated, day 7 after tumor) was 312 mg/group and the “URINARY UREA LOSS” value ([1]; Tumor, Treated, day 8 after tumor) was 275 mg/group. For the same molecule, the “URINARY UREA LOSS” value ([1]; Tumor, Treated, day 10 after tumor) was 206 mg/group, the “URINARY UREA LOSS” value ([1]; Tumor, Treated, day 11 after tumor) was 219 mg/group and the “URINARY UREA LOSS” value ([1]; Tumor, Treated, day 12 after tumor) was 115 mg/group. The “URINARY UREA LOSS” value ([1]; Tumor, Treated, day 13 after tumor) was 201 mg/group, the “URINARY UREA LOSS” value ([1]; Tumor, Treated, day 14 after tumor) was 187 mg/group and the “URINARY UREA LOSS, Sum totals” value ([1]; Tumor, Treated) was 2373 mg/group. The “loss of urea prevented” value ([1]; over the 14 day period) was “approximately 200 mg urea/mouse”, the “nitrogen retained (equivalent of urea loss prevented)” value [1, 3] was “approximately 100 mg” and the “protein retained (equivalent of urea loss prevented)” value [1, 3] was roughly 625 mg. For the same molecule, the “wet muscle mass retained (equivalent of urea loss prevented)” value [1, 3] was roughly 2.7 g, the “concentration that effectively inhibited production of MIP-1β” value (MIP-1β) was 10 to 20 µM and the absorption and bioavailability ([2]; intraperitoneal or oral dosing routes (data not shown)) was “not rapidly absorbed, and may have a low bioavailability”. For the same molecule, the “distribution half-life (t½α)” value [2, 4] was 2.41 ± 0.69 min, the “distribution rate constant (α)” value [2, 4] was 0.31 ± 0.09 min⁻¹ and the “elimination half-life (t½β)” value [2, 4] was 5.02 ± 0.00 h. The “elimination rate constant (β)” value [2, 4] was 0.0023 ± 0.0000 min⁻¹, the “total clearance (CL)” value [2, 4] was 5.62 ± 0.47 mL/min and the “volume of distribution (Vd)” value [2, 4] was 2.45 ± 0.21 L. The peak plasma levels ([2]; single doses of 0.4-1.0 mg/kg, from pharmacokinetic constants and FIG. 17) was greater than 0.5 µM, the LD50 (LD50; given intraperitoneally) was 50 mg/kg and the LD50 (LD50; given orally) was “exceeds 1 g/kg”.
